From ChEMBL document CHEMBL1667764, “Characterization of the baicalein-bovine serum albumin complex without or with Cu2+ or Fe3+ by spectroscopic approaches” (Eur J Med Chem, 2011)

How the values were obtained:
Conditions in all cases: cattle
Albumin [1] = biological target: T1, Albumin (Bos taurus, UniProt P02769); assay: Binding affinity to bovine serum albumin using 6x10'-6 Lmol'-1 at pH 7.4 at 310K by Stern-Volmer plot
Albumin [2] = biological target: T1, Albumin; assay: Binding affinity to bovine serum albumin using 3x10'-6 Lmol'-1 at pH 7.4 at 310K by Stern-Volmer plot
Albumin [3] = biological target: T1, Albumin; assay: Binding affinity to bovine serum albumin using 4.5x10'-6 Lmol'-1 at pH 7.4 at 310K by Stern-Volmer plot
Albumin [4] = biological target: T1, Albumin; assay: Binding affinity to bovine serum albumin at pH 7.4 at 310K by fluorescence quenching
Albumin [5] = biological target: T1, Albumin; assay: Binding affinity to bovine serum albumin at pH 7.4 at 310K in presence of Cu2+ by fluorescence quenching
Albumin [6] = biological target: T1, Albumin; assay: Binding affinity to bovine serum albumin at pH 7.4 at 310K in presence of Fe3+ by fluorescence quenching
Albumin [7] = biological target: T1, Albumin; assay: Binding affinity to bovine serum albumin at pH 7.4 at 310K by fluorescence quenching logarithmic plot
Albumin [8] = biological target: T1, Albumin; assay: Binding affinity to bovine serum albumin at pH 7.4 at 310K in presence of Cu2+ by fluorescence quenching logarithmic plot
Albumin [9] = biological target: T1, Albumin; assay: Binding affinity to bovine serum albumin at pH 7.4 at 310K in presence of Fe3+ by fluorescence quenching logarithmic plot

T1 sequence (P02769 whole entry): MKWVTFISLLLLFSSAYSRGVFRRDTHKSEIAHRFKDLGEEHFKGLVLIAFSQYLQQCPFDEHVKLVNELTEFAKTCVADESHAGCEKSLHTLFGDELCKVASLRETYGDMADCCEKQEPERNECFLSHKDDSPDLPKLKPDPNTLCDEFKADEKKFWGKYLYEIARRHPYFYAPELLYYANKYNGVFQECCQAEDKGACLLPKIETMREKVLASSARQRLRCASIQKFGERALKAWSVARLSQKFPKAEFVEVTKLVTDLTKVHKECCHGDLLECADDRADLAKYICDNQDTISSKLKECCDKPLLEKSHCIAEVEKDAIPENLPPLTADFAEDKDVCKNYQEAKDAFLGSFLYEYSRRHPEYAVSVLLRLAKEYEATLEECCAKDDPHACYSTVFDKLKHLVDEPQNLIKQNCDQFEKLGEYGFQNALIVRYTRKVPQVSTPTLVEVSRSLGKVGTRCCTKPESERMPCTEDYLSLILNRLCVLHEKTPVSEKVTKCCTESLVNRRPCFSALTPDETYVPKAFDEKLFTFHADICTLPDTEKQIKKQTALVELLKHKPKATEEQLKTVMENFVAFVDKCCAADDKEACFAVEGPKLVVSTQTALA

- KSV (Albumin [1]): 1.51 ×10⁵ L/mol
- Kq (Albumin [1]): 3.02 ×10¹³ L/mol/s
- KSV (Albumin [2]): 2.11 ×10⁵ L/mol
- Kq (Albumin [2]): 4.22 ×10¹³ L/mol/s
- KSV (Albumin [3]): 1.96 ×10⁵ L/mol
- Kq (Albumin [3]): 3.92 ×10¹³ L/mol/s
- KSV (Albumin [4]): 1.96 ×10⁵ L/mol
- Kq (Albumin [4]): 3.92 ×10¹³ L/mol/s
- KSV (Albumin [5]): 1.76 ×10⁵ L/mol
- Kq (Albumin [5]): 3.52 ×10¹³ L/mol/s
- KSV (Albumin [6]): 1.6 ×10⁵ L/mol
- Kq (Albumin [6]): 3.2 ×10¹³ L/mol/s
- K (Albumin [7]): 2.7 ×10⁵ L/mol
- K (Albumin [8]): 1.88 ×10⁵ L/mol
- K (Albumin [9]): 4.85 ×10⁴ L/mol
SMILES: O=c1cc(-c2ccccc2)oc2cc(O)c(O)c(O)c12 [BAICALEIN]
